Columns and labels:
[1] = system: Total ATXN3 (tATXN3) protein; test: Endogenous Total ATXN3 (tATXN3) Protein Assay (MSD immunoassay of cell lysates); format: cell-based; settings: average IC50, total ATXN3 protein in cell lysate after 48 h with compound (Table 1)
Summary of the method: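 By electrochemiluminescent MSD sandwich immunoassay (mouse monoclonal capture, rabbit monoclonal and SULFO-TAG anti-rabbit detection), endogenous ATXN3 was quantified in lysates of cells treated 48 h at 37° C at 10,000 cells/well. Treatment used a 7-point 3.16-fold duplicate dilution series, with average IC50 grouped into star categories.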

[2] = system: ATXN3 pre-mRNA; test: RT-qPCR Assay to Quantify Exon 4 Skipping in ATXN3 pre-mRNA in Cells; format: cell-based; settings: percent exon 4 skipping in ATXN3 pre-mRNA, RT-qPCR of cell lysates; average IC50
Summary of the method: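 IC50 derives from a dose-response fit of percent exon 4 skipping, quantified by RT-qPCR on crude lysates. Compounds tested as 7-point 3.16-fold dilutions in duplicate; cells (10,000/well) were exposed for 24 h at 37 °C before lysis.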

| Structure (SMILES) | IC50 [1] [nM] | IC50 [2] [nM] |
| --- | --- | --- |
| N[C@H]1CCCCC[C@@H]1c1sc2c(NCc3cccs3)cc(Cl)nc2c1I [Compound 163, 2-((1S,2S)-2-aminocycloheptyl)-5-chloro-3-iodo-N-(thiophen-2-ylmethyl)thieno[3,2-b]pyridin-7-amine] | 30 to 300 | ≤ 30 |
| N[C@H]1CCC[C@@H]1c1sc2c(NCc3ccccc3)cc(Cl)nc2c1Br [Compound 166, 2-((1S,2S)-2-aminocyclopentyl)-N-benzyl-3-bromo-5-chlorothieno[3,2-b]pyridin-7-amine] | 30 to 300 | 30 to 300 |
| N[C@H]1CC=CC[C@@H]1c1sc2c(NCc3ccco3)cc(Cl)nc2c1Cl [Compound 169, 2-((1S,6S)-6-aminocyclohex-3-en-1-yl)-3,5-dichloro-N-(furan-2-ylmethyl)thieno[3,2-b]pyridin-7-amine] | ≤ 30 | ≤ 30 |
| N[C@H]1CC=CC[C@@H]1c1sc2c(NCc3cccs3)cc(Cl)nc2c1I [Compound 176, 2-((1S,6S)-6-aminocyclohex-3-en-1-yl)-5-chloro-3-iodo-N-(thiophen-2-ylmethyl)thieno[3,2-b]pyridin-7-amine] | ≤ 30 | ≤ 30 |
| N[C@H]1CC=CC[C@@H]1c1sc2c(NCc3nccs3)cc(Cl)nc2c1Cl [Compound 178, 2-((1S,6S)-6-aminocyclohex-3-en-1-yl)-3,5-dichloro-N-(thiazol-2-ylmethyl)thieno[3,2-b]pyridin-7-amine] | ≤ 30 | ≤ 30 |
| N[C@H]1CC=CC[C@@H]1c1sc2c(NCc3cccs3)nc(Cl)nc2c1I [Compound 182, 6-((1S,6S)-6-aminocyclohex-3-en-1-yl)-2-chloro-7-iodo-N-(thiophen-2-ylmethyl)thieno[3,2-d]pyrimidin-4-amine] | ≤ 30 | ≤ 30 |
| N[C@H]1CC=CC[C@@H]1c1sc2c(NCc3cccs3)cc(Cl)nc2c1Br [Compound 186, 2-((1S,6S)-6-aminocyclohex-3-en-1-yl)-3-bromo-5-chloro-N-(thiophen-2-ylmethyl)thieno[3,2-b]pyridin-7-amine] | ≤ 30 | ≤ 30 |
| N[C@H]1CC=CC[C@@H]1c1sc2c(NCc3ccccc3)cc(Cl)nc2c1I [Compound 190, 2-((1S,6S)-6-aminocyclohex-3-en-1-yl)-N-benzyl-5-chloro-3-iodothieno[3,2-b]pyridin-7-amine] | ≤ 30 | ≤ 30 |
| Cc1c([C@H]2CC=CC[C@@H]2N)sc2c(NCc3ccco3)nc(Cl)nc12 [Compound 193, 6-((1S,6S)-6-aminocyclohex-3-en-1-yl)-2-chloro-N-(furan-2-ylmethyl)-7-methylthieno[3,2-d]pyrimidin-4-amine] | ≤ 30 | ≤ 30 |
| N[C@H]1CC=CC[C@@H]1c1sc2c(NCc3cccs3)cc(Cl)nc2c1Cl [Compound 196, 2-((1S,6S)-6-aminocyclohex-3-en-1-yl)-3,5-dichloro-N-(thiophen-2-ylmethyl)thieno[3,2-b]pyridin-7-amine] | ≤ 30 | ≤ 30 |
| N[C@H]1CCCC[C@@H]1c1sc2c(NCc3ccncc3)cc(Cl)nc2c1Br [Compound 197, 2-((1S,2S)-2-aminocyclohexyl)-3-bromo-5-chloro-N-(pyridin-4-ylmethyl)thieno[3,2-b]pyridin-7-amine] | ≤ 30 | ≤ 30 |
| N[C@H]1CC=CC[C@@H]1c1sc2c(NCc3ccncc3)cc(Cl)nc2c1Br [Compound 198, 2-((1S,6S)-6-aminocyclohex-3-en-1-yl)-3-bromo-5-chloro-N-(pyridin-4-ylmethyl)thieno[3,2-b]pyridin-7-amine] | ≤ 30 | ≤ 30 |
| N[C@H]1CCCC(F)(F)[C@@H]1c1sc2c(NCc3ccco3)nc(Cl)nc2c1Br [Compound 201, 6-((1R,6S)-6-amino-2,2-difluorocyclohexyl)-7-bromo-2-chloro-N-(furan-2-ylmethyl)thieno[3,2-d]pyrimidin-4-amine] | ≤ 30 | ≤ 30 |
| CC#CCNc1cc(Cl)nc2c(I)c([C@H]3CC=CC[C@@H]3N)sc12 [Compound 202, 2-((1S,6S)-6-aminocyclohex-3-en-1-yl)-N-(but-2-yn-1-yl)-5-chloro-3-iodothieno[3,2-b]pyridin-7-amine] | ≤ 30 | ≤ 30 |
| [2H]C1=C([2H])C([2H])([2H])[C@H](c2sc3c(NCc4cccs4)cc(Cl)nc3c2C)[C@@H](N)C1([2H])[2H] [Compound 205, 2-((1S,6S)-6-aminocyclohex-3-en-1-yl-2,2,3,4,5,5-d6)-5-chloro-3-methyl-N-(thiophen-2-ylmethyl)thieno[3,2-b]pyridin-7-amine] | ≤ 30 | ≤ 30 |

The next lines start with the values.

| IC50 [1] [nM] | IC50 [2] [nM] | Structure (SMILES) |
| --- | --- | --- |
| > 1000 | 300 to 1000 | CCc1c([C@H]2CCCCCC[C@@H]2N)sc2c(NCc3cccs3)cc(Cl)nc12 [Compound 164, 2-((1S,2S)-2-aminocyclooctyl)-5-chloro-3-ethyl-N-(thiophen-2-ylmethyl)thieno[3,2-b]pyridin-7-amine] |
| ≤ 30 | ≤ 30 | N[C@H]1CCC[C@@H]1c1sc2c(NCc3ccco3)cc(Cl)nc2c1Br [Compound 165, 2-((1S,2S)-2-aminocyclopentyl)-3-bromo-5-chloro-N-(furan-2-ylmethyl)thieno[3,2-b]pyridin-7-amine] |
| 300 to 1000 | 30 to 300 | N[C@@H]1CCC[C@H]1c1sc2c(NCc3ccccc3)cc(Cl)nc2c1Cl [Compound 167, 2-((1R,2R)-2-aminocyclopentyl)-N-benzyl-3,5-dichlorothieno[3,2-b]pyridin-7-amine] |
| ≤ 30 | ≤ 30 | N[C@H]1CC=CC[C@@H]1c1sc2c(NCc3ccco3)nc(Cl)nc2c1Br [Compound 168, 6-((1S,6S)-6-aminocyclohex-3-en-1-yl)-7-bromo-2-chloro-N-(furan-2-ylmethyl)thieno[3,2-d]pyrimidin-4-amine] |
| ≤ 30 | < 30 | N[C@H]1CC=CC[C@@H]1c1sc2c(NCc3ccco3)nc(Cl)nc2c1Cl [Compound 170, 6-((1S,6S)-6-aminocyclohex-3-en-1-yl)-2,7-dichloro-N-(furan-2-ylmethyl)thieno[3,2-d]pyrimidin-4-amine] |
| ≤ 30 | ≤ 30 | N[C@H]1CC=CC[C@@H]1c1sc2c(NCc3ccco3)nc(Cl)nc2c1I [Compound 172, 6-((1S,6S)-6-aminocyclohex-3-en-1-yl)-2-chloro-N-(furan-2-ylmethyl)-7-iodothieno[3,2-d]pyrimidin-4-amine] |
| ≤ 30 | ≤ 30 | N[C@H]1CCCC[C@@H]1c1sc2c(NCc3ccco3)cc(Cl)nc2c1Cl [Compound 173, 2-((1S,2S)-2-aminocyclohexyl)-3,5-dichloro-N-(furan-2-ylmethyl)thieno[3,2-b]pyridin-7-amine] |
| ≤ 30 | ≤ 30 | N[C@H]1CCOC[C@@H]1c1sc2c(NCc3ccco3)cc(Cl)nc2c1Cl [Compound 174, 2-((3R,4S)-4-aminotetrahydro-2H-pyran-3-yl)-3,5-dichloro-N-(furan-2-ylmethyl)thieno[3,2-b]pyridin-7-amine] |
| ≤ 30 | ≤ 30 | N[C@H]1CCOC[C@@H]1c1sc2c(NCc3cccs3)cc(Cl)nc2c1Cl [Compound 179, 2-((3R,4S)-4-aminotetrahydro-2H-pyran-3-yl)-3,5-dichloro-N-(thiophen-2-ylmethyl)thieno[3,2-b]pyridin-7-amine] |
| ≤ 30 | ≤ 30 | Cc1c([C@H]2CC=CC[C@@H]2N)sc2c(NCc3ccco3)cc(Cl)nc12 [Compound 184, 2-((1S,6S)-6-aminocyclohex-3-en-1-yl)-5-chloro-N-(furan-2-ylmethyl)-3-methylthieno[3,2-b]pyridin-7-amine] |
| ≤ 30 | ≤ 30 | [2H]C1=C([2H])C([2H])([2H])[C@H](c2sc3c(NCc4ccco4)nc(Cl)nc3c2C)[C@@H](N)C1([2H])[2H] [Compound 187, 6-((1S,6S)-6-aminocyclohex-3-en-1-yl-2,2,3,4,5,5-d6)-2-chloro-N-(furan-2-ylmethyl)-7-methylthieno[3,2-d]pyrimidin-4-amine] |
| ≤ 30 | ≤ 30 | N[C@H]1CC=CC[C@@H]1c1sc2c(NCc3ccco3)cc(Cl)nc2c1I [Compound 188, 2-((1S,6S)-6-aminocyclohex-3-en-1-yl)-5-chloro-N-(furan-2-ylmethyl)-3-iodothieno[3,2-b]pyridin-7-amine] |
| ≤ 30 | ≤ 30 | N[C@H]1CC=CC[C@@H]1c1sc2c(NCc3cccs3)nc(Cl)nc2c1Br [Compound 191, 6-((1S,6S)-6-aminocyclohex-3-en-1-yl)-7-bromo-2-chloro-N-(thiophen-2-ylmethyl)thieno[3,2-d]pyrimidin-4-amine] |
| ≤ 30 | ≤ 30 | N[C@H]1CC=CC[C@@H]1c1sc2c(NCc3ccccc3)cc(Cl)nc2c1Br [Compound 194, 2-((1S,6S)-6-aminocyclohex-3-en-1-yl)-N-benzyl-3-bromo-5-chlorothieno[3,2-b]pyridin-7-amine] |
| ≤ 30 | ≤ 30 | N[C@H]1CC=CC[C@@H]1c1sc2c(NCc3ncco3)cc(Cl)nc2c1Cl [Compound 199, 2-((1S,6S)-6-aminocyclohex-3-en-1-yl)-3,5-dichloro-N-(oxazol-2-ylmethyl)thieno[3,2-b]pyridin-7-amine] |
| ≤ 30 | ≤ 30 | N[C@H]1CC=CC[C@@H]1c1sc2c(NCc3ccncc3)cc(Cl)nc2c1Cl [Compound 203, 2-((1S,6S)-6-aminocyclohex-3-en-1-yl)-3,5-dichloro-N-(pyridin-4-ylmethyl)thieno[3,2-b]pyridin-7-amine] |

Source: patent US20250382305A1 (PTC THERAPEUTICS, INC., priority 2022, published 2025)
